Data reported in patent publication US9120749B2, “Quinoline derivatives and MELK inhibitors containing the same” (ONCOTHERAPY SCIENCE, INC., priority 2010, dated 2015).
Like-named read-outs stand apart in the source and are kept apart here.

Tests used:
[1] = biological target: MELK (Homo sapiens, UniProt Q14680); assay: Kinase assay: MELK activity, phosphorylation of FITC-labeled histone H3 peptide measured by IMAP fluorescence polarization; assay type: biochemical; details: read-out: IC50 (μM) (kinase assay)
Sequence of MELK (Q14680 whole entry, looked up): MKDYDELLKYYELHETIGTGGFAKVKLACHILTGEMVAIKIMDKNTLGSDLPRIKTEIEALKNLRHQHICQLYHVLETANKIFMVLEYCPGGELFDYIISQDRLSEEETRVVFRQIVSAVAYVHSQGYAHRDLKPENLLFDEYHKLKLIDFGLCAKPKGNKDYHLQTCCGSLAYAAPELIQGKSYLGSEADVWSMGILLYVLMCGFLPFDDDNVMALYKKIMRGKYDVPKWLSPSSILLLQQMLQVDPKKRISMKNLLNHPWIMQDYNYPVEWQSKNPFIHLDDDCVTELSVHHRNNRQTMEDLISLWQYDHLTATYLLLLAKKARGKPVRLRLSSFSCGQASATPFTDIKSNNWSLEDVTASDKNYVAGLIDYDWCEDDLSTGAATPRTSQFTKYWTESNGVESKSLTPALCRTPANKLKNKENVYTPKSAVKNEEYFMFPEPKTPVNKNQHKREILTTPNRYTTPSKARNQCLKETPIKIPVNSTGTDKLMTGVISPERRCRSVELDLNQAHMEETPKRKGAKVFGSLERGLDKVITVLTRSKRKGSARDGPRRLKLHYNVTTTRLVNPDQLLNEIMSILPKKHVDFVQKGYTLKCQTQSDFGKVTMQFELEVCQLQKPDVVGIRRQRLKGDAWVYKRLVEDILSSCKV
Summary of the method: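 Substrate is FITC-labeled histone H3 peptide. Compounds come from a 12.5 mM DMSO stock, diluted so assay DMSO is 1%. The stop step adds threefold-volume progressive binding solution, followed by 0.5 h at room temperature and an FP read.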

[2] = test system: DU4475; assay: Cell-based assay: anti-proliferative activity, Cell Counting Kit-8, 72 hours (DU4475); details: Homo sapiens, DU-4475, DU4475 cells
[3] = test system: T47D cells; assay: Cell-based assay: anti-proliferative activity, Cell Counting Kit-8, 72 hours (T47D); details: Homo sapiens, T47D, 72 h
Summary of the method: (§1)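 IC50 values come from CCK-8 growth measurements taken 72 hours post-treatment of plated cells with test compounds. Expression of MELK across the panel was assessed through immunoblot of unfractionated lysates.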

[4] = test system: HT-1197 cells; assay: Cell-based assay: anti-proliferative activity, Cell Counting Kit-8, 72 hours (HT-1197, negative control without MELK expression); details: Homo sapiens, HT1197, 72 h
Summary of the method: as §1

[5] = test system: A549 cells; assay: Cell-based assay: anti-proliferative activity, Cell Counting Kit-8, 72 hours (A549); details: Homo sapiens, A549, 72 h
Summary of the method: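 Cell Counting Kit-8 read-out of A549 growth after 72 hours of inhibitor exposure, cells plated in 96-well format. Values reported as IC50.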

[6] = test system: BT-549 cells; assay: Cell-based assay: anti-proliferative activity, Cell Counting Kit-8, 72 hours (BT-549); details: Homo sapiens, BT-549, 72 h, BT549 cells, MELK-expressing; Cell Counting Kit-8 at 72 hours
Summary of the method: as §1

[7] = HT1197 cells (negative control, no MELK expression), 72 hours
[8] = 50 micro-M ATP, FITC-labeled histone H3 peptide substrate, IMAP fluorescence polarization
[9] = MELK-expressing, Cell Counting Kit-8 at 72 hours
[10] = HT1197 cells, no MELK expression (negative control), Cell Counting Kit-8 at 72 hours

Structure (SMILES)	IC50 [1]	IC50 [2]	IC50 [3]	IC50 [4, 7]	IC50 ([5]; 72 hours)	IC50 [1, 8]	IC50 [3, 9]	IC50 [4, 10]	IC50 [6]	IC50 [5, 9]
COc1cc(-c2ccc3ncc(C(=O)C4CC4)c(-c4ccc(C(=O)N5CCN(C)CC5)cc4)c3c2)cc(Cl)c1O [Example 476, (4-(6-(3-chloro-4-hydroxy-5-methoxyphenyl)-3-(cyclopropanecarbonyl)quinolin-4-yl)phenyl)(4-methylpiperazin-1-yl)methanone]	0.0081 µM	0.5 µM	0.23 µM	2.1 µM	0.31 µM	–	–	–	–	–
CN1CCN(c2ccc(Nc3c(C(=O)C4CC4)cnc4ccc(-c5cnc(C#N)nc5)cc34)cn2)CC1 [Example 469]	0.0015 µM	0.43 µM	0.18 µM	1.4 µM	0.99 µM	–	–	–	–	–
CN1CCN(Cc2cccc(-c3c(C(=O)C4CC4)cnc4ccc(-c5cc(Cl)c(O)c(Cl)c5)cc34)c2)CC1 [Example 478, cyclopropyl(6-(3,5-dichloro-4-hydroxyphenyl)-4-(3-((4-methylpiperazin-1-yl)methyl)phenyl)quinolin-3-yl)methanone]	0.0078 µM	0.75 µM	0.53 µM	2.9 µM	0.87 µM	–	–	–	–	–
COc1cc(-c2ccc3ncc(C(=O)C4CC4)c(N4CCN(C(=O)CN(C)C)CC4)c3c2)cc(Cl)c1O [Example 437, 1-(4-(6-(3-chloro-4-hydroxy-5-methoxyphenyl)-3-(cyclopropanecarbonyl)quinolin-4-yl)piperazin-1-yl)-2-(dimethylamino)ethanone]	–	0.22 µM	0.28 µM	1.7 µM	0.19 µM	0.0011 µM	–	–	–	–
CN(C)Cc1ccc(Nc2c(C(=O)C3CCCC3)cnc3ccc(-c4cc(F)c(O)c(Cl)c4)cc23)cc1 [Example 388, (6-(3-chloro-5-fluoro-4-hydroxyphenyl)-4-(4-((dimethylamino)methyl)phenylamino)quinolin-3-yl)(cyclopentyl)methanone]	–	0.21 µM	0.52 µM	1.5 µM	0.52 µM	0.014 µM	–	–	–	–
C[S+]([O-])c1cnc2ccc(-c3ccc(O)c(Cl)c3)cc2c1N[C@H]1CC[C@H](N)CC1 (stereo partly drawn) [Example 499]	0.036 µM	2.5 µM	2.7 µM	18 µM	9.7 µM	–	–	–	–	–
CC(C)C(=O)c1cnc2ccc(-c3cc4cc(O)ccc4[nH]3)cc2c1N[C@H]1CC[C@H](N)CC1 [Example 480]	0.054 µM	0.93 µM	0.59 µM	4.6 µM	2.7 µM	–	–	–	–	–
COc1cc(-c2ccc3ncc(C(=O)C4CC4)c(Nc4ccc(CN5CCN(C)CC5)cc4)c3c2)cc(Cl)c1O [Example 398, (6-(3-chloro-4-hydroxy-5-methoxyphenyl)-4-(4-((4-methylpiperazin-1-yl)methyl)phenylamino)quinolin-3-yl)(cyclopropyl)methanone]	–	0.73 µM	0.78 µM	4.7 µM	0.38 µM	0.0084 µM	–	–	–	–
O=C(c1cnc2ccc(-c3cc(F)c(O)c(Cl)c3)cc2c1Nc1ccc(CN2CCOCC2)cc1)C1CC1 [Example 460]	–	0.42 µM	0.65 µM	4.2 µM	0.59 µM	0.083 µM	–	–	–	–
CN1CCN(Cc2ccc(Nc3c(C(=O)C4CC4)cnc4ccc(-c5cc(Cl)c(O)c(Cl)c5)cc34)cc2)CC1 [Example 397, Cyclopropyl{6-(3,5-dichloro-4-hydroxyphenyl)-4-[4-((4-methylpiperazin-1-yl)methyl)phenylamino]quinolin-3-yl}methanone]	–	0.088 µM	0.33 µM	5.2 µM	0.15 µM	0.0076 µM	–	–	–	–
CN1CCN(c2ncc(-c3c(C(=O)C4CC4)cnc4ccc(-c5cc(Cl)c(O)c(Cl)c5)cc34)cn2)CC1 [Example 479, cyclopropyl(6-(3,5-dichloro-4-hydroxyphenyl)-4-(2-(4-methylpiperazin-1-yl)pyrimidin-5-yl)quinolin-3-yl)methanone]	0.04 µM	1.7 µM	0.92 µM	7.9 µM	1.7 µM	–	–	–	–	–
COc1cc(-c2ccc3ncc(C(C)=O)c(N[C@H]4CC[C@H](CN(C)C)CC4)c3c2)cc(Cl)c1O [Example 392]	–	0.44 µM	0.25 µM	10 µM	0.27 µM	0.0034 µM	–	–	–	–
N#Cc1ncc(-c2ccc3ncc(C(=O)C4CC4)c(Nc4ccc(CN5CCOCC5)cc4)c3c2)cn1 [Example 461]	–	0.41 µM	0.17 µM	2 µM	1.6 µM	0.015 µM	–	–	–	–
CC(=O)c1cnc2ccc(-c3cnc(C#N)nc3)cc2c1N[C@H]1CC[C@H](CN(C)C)CC1 [Example 418]	–	0.5 µM	0.23 µM	1.4 µM	0.95 µM	0.0073 µM	–	–	–	–
COc1cc(-c2ccc3ncc(C(C)=O)c(N4CCN(C(=O)CN(C)C)CC4)c3c2)cc(Cl)c1O [Example 477, 1-(4-(3-acetyl-6-(3-chloro-4-hydroxy-5-methoxyphenyl)quinolin-4-yl)piperazin-1-yl)-2-(dimethylamino)ethanone]	0.0016 µM	0.3 µM	0.87 µM	4.7 µM	0.36 µM	–	–	–	–	–
O=C(c1cnc2ccc(-c3cc(F)c(O)c(Cl)c3)cc2c1N1CCN(CCN2CCCC2)CC1)C1CC1 [Example 402, (6-(3-chloro-5-fluoro-4-hydroxyphenyl)-4-(4-(2-(pyrrolidin-1-yl)ethyl)piperazin-1-yl)quinolin-3-yl)(cyclopropyl)methanone]	–	0.48 µM	0.88 µM	5.1 µM	1.2 µM	0.0058 µM	–	–	–	–
CN(C)CC1CCN(c2c([S+](C)[O-])cnc3ccc(-c4cc(F)c(O)c(Cl)c4)cc23)CC1 (stereo not drawn) [Example 467]	0.011 µM	1.2 µM	1.5 µM	35 µM	13 µM	–	–	–	–	–
CC(=O)c1cnc2ccc(-c3cc(Cl)c(O)c(Cl)c3)cc2c1Nc1ccc(CN2CCCC2)cc1 [Example 415, 1-(6-(3,5-dichloro-4-hydroxyphenyl)-4-((4-(pyrrolidin-1-ylmethyl)phenyl)amino)quinolin-3-yl)ethanone]	–	0.067 µM	0.12 µM	10 µM	0.15 µM	0.035 µM	–	–	–	–
CN(C)Cc1ccc(Nc2c([S+](C)[O-])cnc3ccc(-c4cc(Cl)c(O)c(Cl)c4)cc23)cc1 (stereo not drawn) [Example 473]	–	0.6 µM	0.43 µM	2.4 µM	1.2 µM	–	–	–	–	–
COc1cc(-c2ccc3ncc([S+](C)[O-])c(N[C@H]4CC[C@H](N)CC4)c3c2)cc(Cl)c1O (stereo partly drawn) [Example 500]	–	1.8 µM	1.6 µM	13 µM	4.5 µM	–	–	–	–	–
O=C(c1cnc2ccc(-c3cc(Cl)c(O)c(Cl)c3)cc2c1Nc1ccc(CN2CCOCC2)cc1)C1CC1 [Example 463]	–	0.26 µM	0.52 µM	3.6 µM	0.43 µM	–	–	–	–	–
CN1CCN(Cc2ccc(-c3c(C(=O)C4CC4)cnc4ccc(-c5cc(Cl)c(O)c(Cl)c5)cc34)cc2)CC1 [Example 482, cyclopropyl(6-(3,5-dichloro-4-hydroxyphenyl)-4-(4-((4-methylpiperazin-1-yl)methyl)phenyl)quinolin-3-yl)methanone]	–	0.9 µM	0.54 µM	3.1 µM	0.96 µM	–	–	–	–	–
COc1cc(-c2ccc3ncc(C#N)c(N[C@H]4CC[C@H](N(C)C)CC4)c3c2)cc(Cl)c1O [Example 447]	–	0.076 µM	0.15 µM	2 µM	0.4 µM	–	–	–	–	–
N#Cc1ncc(-c2ccc3ncc(C(=O)C4CC4)c(Nc4ccc(CN)cc4)c3c2)cn1 [Example 509, 5-(4-(4-(aminomethyl)phenylamino)-3-(cyclopropanecarbonyl)quinolin-6-yl)pyrimidine-2-carbonitrile]	–	0.6 µM	0.19 µM	0.95 µM	0.79 µM	–	–	–	–	–
CN1CCN(C2CCN(c3c(C(=O)C4CC4)cnc4ccc(-c5ccc(O)c(Cl)c5)cc34)CC2)CC1 [Example 350, {6-(3-Chloro-4-hydroxyphenyl)-4-[4-(4-methylpiperazin-1-yl)piperidin-1-yl]quinolin-3-yl}(cyclopropyl)methanone]	–	–	–	–	–	0.005 µM	0.26 µM	2.5 µM	0.98 µM	0.44 µM
N[C@H]1CC[C@H](Nc2c(C(=O)C3CC3)cnc3ccc(-c4cc(F)c(O)c(Cl)c4)cc23)CC1 [Example 179, {4-[trans-4-Aminocyclohexylamino]-6-(3-chloro-5-fluoro-4-hydroxyphenyl)quinolin-3-yl}(cyclopropyl)methanone]	–	–	–	–	–	0.0065 µM	0.11 µM	5.2 µM	0.22 µM	0.85 µM
CC(C)C(=O)c1cnc2ccc(-c3ccc(O)c(Cl)c3)cc2c1N[C@H]1CC[C@H](N)CC1 [Example 219, 1-{4-[trans-4-Aminocyclohexylamino]-6-(3-chloro-4-hydroxyphenyl)quinolin-3-yl}-2-methylpropan-1-one]	–	–	–	–	–	0.023 µM	0.11 µM	1.2 µM	0.25 µM	0.32 µM
